Patent publication US4931447A, “Cycloalkylamides of (8β)-1-alkyl-6-(substituted) ergolines” (Eli Lilly and Company, priority 1989, dated 1990)

Legend:
[1] = test system: Male Rats; test: Copulatory performance of male rats (Non-Maters and Non-Ejaculators), subcutaneous administration, percent responding (Table II); format: in vivo, rat (male Sprague-Dawley)
Method: (§1) Adult male rats of the Sprague-Dawley strain were used in these studies. The sexual behavior evaluations were conducted at 2-week intervals beginning at 6 months of age and ending at 12 months of age. During the initial screening process, the male rats of various levels of sexual performance were selected for compound testing. […] Prior to treatment with a drug solution, each male rat was required to have at least two consecutive vehicle tests with similar sexual performance. Following each compound testing, additional vehicle tests were performed.
(§2) The mating tests were performed during the dark phase of the lighting cycle using red light illumination. Each behavioral test was initiated with the introduction of a receptive female rat into the arena and was terminated either 30 minutes later or immediately following the first postejaculatory mount. The indiees of mating performance that were evaluated for the rats capable of ejaculation included mount latency (the time interval from the introduction of the female rat to the first mount); intromission latency (the time interval from the introduction of the female rat to the first intromission); ejaculatory latency (the time interval from intromission to ejaculation); postejaculatory interval (the time from ejaculation to the next mount); mount frequency (the total number of mounts with or without intromission prior to ejaculation); intromission frequency (the number of mounts with intromission prior to ejaculation); intromission efficiency (the intromission frequency divided by the mount frequency); copulatory rate (the number of mounts per minute); copulatory frequency (the number of mounts prior to ejaculation); and copulatory efficiency (the number of mounts with intromission divided by the total number of mounts).
(§3) Each male rat was given a solution containing either the vehicle alone in water or the compound of Example 1, (8β)-N-cyclohexyl-1-isopropyl-6-methylergoline-8-carboxamide, in the same vehicle. Vehicle was made of 1 mM (millimolar) acetic acid and 1 mM ascorbic acid.
(§4) The results of these studies are set forth below in Tables II-VII. In the Tables "N" is the number of animals used to generate the data, the average of which is provided. The specific description of the test performed is set forth in the heading of the Tables.

[2] = test system: Male Rats; test: Copulatory performance of male rats after various time periods following subcutaneous administration at 10 mcg/kg (Table VII); format: in vivo, rat (male Sprague-Dawley); conditions: 10 mcg/kg s.c.
Method: as §1, §2, §3, §4
Of Example 1 at 10 mcg/kg After Various Time Periods

CC(C)n1cc2c3c(cccc31)[C@H]1C[C@@H](C(=O)NC3CCCCC3)CN(C)[C@@H]1C2 [Example 1, (8β)-N-Cyclohexyl-1-isopropyl-6-methylergoline-8-carboxamide]
Non-Ejaculators Percent Responding ([1]; 1 ng/kg s.c., 1/9 responding): 11.1% | Non-Maters Percent Responding ([1]; 1 ng/kg s.c., 1/16 responding): 6.3% | Non-Maters Percent Responding ([1]; 10 ng/kg s.c., 4/14 responding): 28.6% | Non-Ejaculators Percent Responding ([1]; 10 ng/kg s.c., 9/20 responding): 45.0% | Non-Ejaculators Percent Responding ([1]; 100 ng/kg s.c., 6/11 responding): 54.5% | Non-Maters Percent Responding ([1]; 100 ng/kg s.c., 8/14 responding): 57.1% | Non-Maters Percent Responding ([1]; 1000 ng/kg s.c., 7/12 responding): 58.3% | Non-Ejaculators Percent Responding ([1]; 1000 ng/kg s.c., 9/16 responding): 56.3% | Non-Maters Percent Responding ([1]; 10000 ng/kg s.c., 6/11 responding): 54.5% | Non-Ejaculators Percent Responding ([1]; 10000 ng/kg s.c., 11/18 responding): 61.1% | Copulatory Rate ([2]; 0.5 hours, N = 11, control 1.7 ± 0.2, significant (*)): 2.6 ± 0.4 mounts/minute | Postejaculatory Interval ([2]; 0.5 hours, N = 11, control 368.3 ± 23.0): 333.9 ± 10.9 s | Ejaculatory Latency ([2]; 0.5 hours, N = 11, control 850.4 ± 99.2, significant (*)): 454.1 ± 78.4 s | Copulatory Rate ([2]; 8.0 hours, N = 11, control 2.6 ± 0.2, significant (*)): 3.9 ± 0.5 mounts/minute | Postejaculatory Interval ([2]; 8.0 hours, N = 11, control 349.5 ± 16.8, significant (*)): 320.1 ± 17.0 s | Ejaculatory Latency ([2]; 8.0 hours, N = 11, control 653.1 ± 61.7, significant (*)): 402.3 ± 59.7 s | Copulatory Rate ([2]; 24.0 hours, N = 15, control 2.0 ± 0.3, significant (*)): 2.8 ± 0.4 mounts/minute | Postejaculatory Interval ([2]; 24.0 hours, N = 15, control 422.4 ± 25.5): 391.7 ± 18.7 s | Ejaculatory Latency ([2]; 24.0 hours, N = 15, control 815.5 ± 64.6, significant (*)): 604.1 ± 68.4 s | Copulatory Rate ([2]; 48.0 hours, N = 11, control 2.4 ± 0.2, significant (*)): 2.5 ± 0.2 mounts/minute | Postejaculatory Interval ([2]; 48.0 hours, N = 11, control 364.8 ± 27.8, significant (*)): 365.4 ± 20.2 s | Ejaculatory Latency ([2]; 48.0 hours, N = 11, control 591.0 ± 33.8): 531.8 ± 60.6 s
